Test results taken from US10023570B2 (Array BioPharma, Inc., priority 2015, dated 2018).
Structures can show the parent of a compound that is named as a salt.

Target: human KDR protein in HEK-293 cells (Homo sapiens (Human), UniProt P35968)
Assay: KDR Cell Assay (phospho-KDR in HEK-293 cells expressing inducible KDR)
Type: cell-based
Settings: pKDR Cell HEK 10% FBS IC50, HEK-293 cells expressing inducible KDR, VEGF stimulated
Outline: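 HEK-293 cells with inducible human KDR were treated with compound for 1 h in DMEM (0.25% DMSO final), then lysed. Phospho-KDR was quantified by Meso Scale immunoassay, expressed as percent of control, and IC50 taken where a 4-parameter logistic fit crossed 50 POC.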

Sequence of human KDR protein in HEK-293 cells (P35968 20-1356): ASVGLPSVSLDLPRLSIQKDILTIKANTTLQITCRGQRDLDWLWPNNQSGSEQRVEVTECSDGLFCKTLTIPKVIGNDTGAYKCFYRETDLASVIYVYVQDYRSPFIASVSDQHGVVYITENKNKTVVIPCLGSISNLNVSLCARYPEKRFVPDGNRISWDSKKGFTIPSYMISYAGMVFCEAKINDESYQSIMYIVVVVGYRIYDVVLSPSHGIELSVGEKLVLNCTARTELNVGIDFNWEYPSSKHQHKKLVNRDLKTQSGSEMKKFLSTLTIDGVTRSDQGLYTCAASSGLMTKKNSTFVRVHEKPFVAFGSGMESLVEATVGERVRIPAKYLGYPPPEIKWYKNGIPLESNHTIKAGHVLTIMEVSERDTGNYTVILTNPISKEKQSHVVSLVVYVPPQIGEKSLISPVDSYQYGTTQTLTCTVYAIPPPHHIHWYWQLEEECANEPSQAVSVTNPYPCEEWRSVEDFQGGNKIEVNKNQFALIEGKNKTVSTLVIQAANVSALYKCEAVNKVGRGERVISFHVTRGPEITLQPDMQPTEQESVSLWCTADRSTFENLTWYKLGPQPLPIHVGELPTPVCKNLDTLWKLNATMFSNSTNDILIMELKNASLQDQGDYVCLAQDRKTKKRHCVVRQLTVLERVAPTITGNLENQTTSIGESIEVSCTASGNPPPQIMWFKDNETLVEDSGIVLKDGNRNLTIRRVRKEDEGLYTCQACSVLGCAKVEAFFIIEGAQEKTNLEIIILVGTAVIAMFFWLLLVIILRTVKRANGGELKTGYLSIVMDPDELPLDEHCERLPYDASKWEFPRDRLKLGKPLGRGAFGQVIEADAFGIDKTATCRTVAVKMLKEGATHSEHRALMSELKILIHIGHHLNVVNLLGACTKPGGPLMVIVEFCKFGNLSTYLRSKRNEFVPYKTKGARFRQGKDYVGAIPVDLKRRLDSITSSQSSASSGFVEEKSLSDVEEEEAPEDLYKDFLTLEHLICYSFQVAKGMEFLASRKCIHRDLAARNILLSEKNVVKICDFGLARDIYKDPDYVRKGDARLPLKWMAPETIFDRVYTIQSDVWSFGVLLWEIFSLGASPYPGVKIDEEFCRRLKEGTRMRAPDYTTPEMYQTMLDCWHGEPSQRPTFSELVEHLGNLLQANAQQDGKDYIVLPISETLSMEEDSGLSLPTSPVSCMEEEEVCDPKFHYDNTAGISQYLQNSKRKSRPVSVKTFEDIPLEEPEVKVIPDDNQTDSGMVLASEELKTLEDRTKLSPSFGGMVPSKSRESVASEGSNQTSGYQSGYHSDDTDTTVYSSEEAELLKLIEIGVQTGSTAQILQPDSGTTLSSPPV

Row | Structure (SMILES) | IC50 (10% FBS) | IC50
1 | CO[C@H]1CCN(C(=O)N2CCN(c3ccc(-c4cc(-c5cnn(C(F)F)c5)cn5ncc(C#N)c45)cn3)CC2)C1 [Example 269, (S)-6-(1-(difluoromethyl)-1H-pyrazol-4-yl)-4-(6-(4-(3-methoxypyrrolidine-1-carbonyl)piperazin-1-yl)pyridin-3-yl)pyrazolo[1,5-a]pyridine-3-carbonitrile] | 1700 nM | 
2 | Cn1cc(-c2cc(-c3ccc(N4CCN(C(=O)Cc5cccnc5)CC4)nc3)c3c(C#N)cnn3c2)cn1 [Example 71, 6-(1-methyl-1H-pyrazol-4-yl)-4-(6-(4-(2-(pyridin-3-yl)acetyl)piperazin-1-yl)pyridin-3-yl)pyrazolo[1,5-a]pyridine-3-carbonitrile] | 503 nM | 
3 | Cn1cc(-c2cc(-c3ccc(N4CCN(Cc5cccnc5)CC4)nc3)c3c(C#N)cnn3c2)cn1 [Example 471, 6-(1-methyl-1H-pyrazol-4-yl)-4-(6-(4-(pyridin-3-ylmethyl)piperazin-1-yl)pyridine-3-yl)pyrazolo[1,5-a]pyridine-3-carbonitrile] |  | 1580 nM
4 | CC(C)C1CCN(C(=O)N2CCN(c3ccc(-c4cc(-c5cnn(C)c5)cn5ncc(C#N)c45)cn3)CC2)C1 (stereo not shown) [Example 390, 4-(6-(4-(3-isopropylpyrrolidine-1-carbonyl)piperazin-1-yl)pyridin-3-yl)-6-(1-methyl-1H-pyrazol-4-yl)pyrazolo[1,5-a]pyridine-3-carbonitrile] |  | 951 nM
5 | Cn1cc(-c2cc(-c3ccc(N4CCN(C(=O)N5CCOCC5)CC4)nc3)c3c(C#N)cnn3c2)cn1 [Example 119, 6-(1-methyl-1H-pyrazol-4-yl)-4-(6-(4-(morpholine-4-carbonyl)piperazin-1-yl)pyridin-3-yl)pyrazolo[1,5-a]pyridine-3-carbonitrile] | 2270 nM | 
6 | Cn1cc(-c2cc(-c3ccc(N4CCN(C(=O)[C@@H](CO)c5ccccc5)CC4)nc3)c3c(C#N)cnn3c2)cn1 [Example 373, (R)-4-(6-(4-(3-hydroxy-2-phenylpropanol)piperazin-1-yl)pyridin-3-yl)-6-(1-methyl-1H-pyrazol-4-yl)pyrazolo[1,5-a]pyridine-3-carbonitrile] |  | 1820 nM
7 | CC(C)N1CC(n2cc(-c3cc(-c4ccc(N5CCN(Cc6ccccc6)CC5)nc4)c4c(C#N)cnn4c3)cn2)C1 [Example 596, 4-(6-(4-benzylpiperazin-1-yl)pyridin-3-yl)-6-(1-(1-isopropylazetidin-3-yl)-1H-pyrazol-4-yl)pyrazolo[1,5-a]pyridine-3-carbonitrile] |  | 305 nM
8 | Cn1cc(-c2cc(-c3ccc(N4[C@@H]5CC[C@H]4C[C@@H](NC(=O)OC(C)(C)C)C5)nc3)c3c(C#N)cnn3c2)cn1 [Example 194, tert-butyl ((1R,3r,5S)-8-(5-(3-cyano-6-(1-methyl-1H-pyrazol-4-yl)pyrazolo[1,5-a]pyridin-4-yl)pyridin-2-yl)-8-azabicyclo[3.2.1]octan-3-yl)carbamate] | 242 nM | 
9 | Cn1cc(-c2cc(-c3ccc(N4CCN(S(C)(=O)=O)CC4)nc3)c3c(C#N)cnn3c2)cn1 [Example 88, 6-(1-methyl-1H-pyrazol-4-yl)-4-(6-(4-(methylsulfonyl)piperazin-1-yl)pyridin-3-yl)pyrazolo[1,5-a]pyridine-3-carbonitrile] | 195 nM | 
10 | Cc1cnn2cc(-c3cnn(C)c3)cc(-c3ccc(N4CCN(C(=O)[C@H](O)c5ccccc5)CC4)nc3)c12 [Example 652, (R)-2-hydroxy-1-(4-(5-(3-methyl-6-(1-methyl-1H-pyrazol-4-yl)pyrazolo[1,5-a]pyridin-4-yl)pyridin-2-yl)piperazin-1-yl)-2-phenyl ethan-1-one] |  | 1700 nM
11 | Cn1cc(C(=O)N2CCN(c3ccc(-c4cc(-c5cnn(C)c5)cn5ncc(C#N)c45)cn3)CC2)cn1 [Example 35, 6-(1-methyl-1H-pyrazol-4-yl)-4-(6-(4-(1-methyl-1H-pyrazole-4-carbonyl)piperazin-1-yl)pyridin-3-yl)pyrazolo[1,5-a]pyridine-3-carbonitrile 2,2,2-trifluoroacetate] | 437 nM | 
12 | CN(C(=O)N1CCN(c2ccc(-c3cc(-c4cnn(C)c4)cn4ncc(C#N)c34)cn2)CC1)c1ccccc1 [Example 109, 4-(5-(3-cyano-6-(1-methyl-1H-pyrazol-4-yl)pyrazolo[1,5-a]pyridin-4-yl)pyridin-2-yl)-N-methyl-N-phenylpiperazine-1-carboxamide] | 360 nM | 
13 | Cn1cc(-c2cc(-c3ccc(N4CC5CC(C4)N5Cc4ccccc4)nc3)c3c(C#N)cnn3c2)cn1 [Example 489, 4-(6-(6-benzyl-3,6-diazabicyclo[3.1.1]heptan-3-yl)pyridin-3-yl)-6-(1-methyl-1H-pyrazol-4-yl)pyrazolo[1,5-a]pyridine-3-carbonitrile] |  | 19.5 nM
14 | COCCN1CCN(c2ccc(-c3cc(-c4cnn(C)c4)cn4ncc(C#N)c34)cn2)CC1 [Example 396, 4-(6-(4-(2-methoxyethyl)piperazin-1-yl)pyridin-3-yl)-6-(1-methyl-1H-pyrazol-4-yl)pyrazolo[1,5-a]pyridine-3-carbonitrile] |  | 1460 nM
15 | C[C@@H](O)Cn1cc(-c2cc(-c3ccc(N4CCN(C(=O)CC(C)(C)C)CC4)cc3)c3c(C#N)cnn3c2)cn1 [Example 305, (R)-4-(4-(4-(3,3-dimethylbutanoyl)piperazin-1-yl)phenyl)-6-(1-(2-hydroxypropyl)-1H-pyrazol-4-yl)pyrazolo[1,5-a]pyridine-3-carbonitrile] | 1490 nM | 
16 | COCCn1ccc(C(=O)N2CCN(c3ccc(-c4cc(-c5cnn(C)c5)cn5ncc(C#N)c45)cn3)CC2)n1 [Example 366, 4-(6-(4-(1-(2-methoxyethyl)-1H-pyrazole-3-carbonyl)piperazin-1-yl)pyridin-3-yl)-6-(1-methyl-1H-pyrazol-4-yl)pyrazolo[1,5-a]pyridine-3-carbonitrile bis(2,2,2-trifluoroacetate)] | 422 nM | 
17 | CC(C)C(C(=O)N1CCN(c2ccc(-c3cc(-c4cnn(C)c4)cn4ncc(C#N)c34)cn2)CC1)c1ccccc1 (stereo not shown) [Example 29, 6-(1-methyl-1H-pyrazol-4-yl)-4-(6-(4-(3-methyl-2-phenylbutanoyl)piperazin-1-yl)pyridin-3-yl)pyrazolo[1,5-a]pyridine-3-carbonitrile] | 607 nM | 
18 | Cn1cc(-c2cc(-c3ccc(N4CCC5(CCCN5)CC4)nc3)c3c(C#N)cnn3c2)cn1 [Example 541, 4-(6-(1,8-diazaspiro[4.5]decan-8-yl)pyridin-3-yl)-6-(1-methyl-1H-pyrazol-4-yl)pyrazolo[1,5-a]pyridine-3-carbonitrile dihydrochloride] |  | 534 nM
19 | Cn1cc(-c2cc(-c3ccc(N4CCN(C(=O)C5(c6ccccc6)CCOCC5)CC4)nc3)c3c(C#N)cnn3c2)cn1 [Example 342, 6-(1-methyl-1H-pyrazol-4-yl)-4-(6-(4-(4-phenyltetrahydro-2H-pyran-4-carbonyl)piperazin-1-yl)pyridin-3-yl)pyrazolo[1,5-a]pyridine-3-carbonitrile] | 4750 nM | 
20 | Cc1ncc(-c2cc(-c3ccc(N4CCN(Cc5ccccc5)CC4)nc3)c3c(C#N)cnn3c2)o1 [Example 628, 4-(6-(4-benzylpiperazin-1-yl)pyridin-3-yl)-6-(2-methyloxazol-5-yl)pyrazolo[1,5-a]pyridine-3-carbonitrile] |  | ≥ 5000 nM
21 | Cn1cc(-c2cc(-c3ccc(N4CCN(C(=O)C(O)c5ccc(F)cc5F)CC4)nc3)c3ccnn3c2)cn1 (stereo not shown) [Example 317, 2-(2,4-difluorophenyl)-2-hydroxy-1-(4-(5-(6-(1-methyl-1H-pyrazol-4-yl)pyrazolo[1,5-a]pyridin-4-yl)pyridin-2-yl)piperazin-1-yl)ethanone] | ≥ 5000 nM | 
22 | Cn1cc(-c2cc(-c3ccc(N4CCN(CC(F)F)CC4)nc3)c3c(C#N)cnn3c2)cn1 [Example 418, 4-(6-(4-(2,2-difluoroethyl)piperazin-1-yl)pyridin-3-yl)-6-(1-methyl-1H-pyrazol-4-yl)pyrazolo[1,5-a]pyridine-3-carbonitrile] |  | 1510 nM
23 | Cn1cc(-c2cc(-c3ccc(N4CCN(C(=O)OC(C)(C)C)CC4)cc3)c3c(C#N)cnn3c2)cn1 [Example 290, tert-Butyl 4-(4-(3-cyano-6-(1-methyl-1H-pyrazol-4-yl)pyrazolo[1,5-a]pyridin-4-yl)phenyl)piperazine-1-carboxylate] | 3440 nM | 
24 | CC(=O)N1CCN(c2ccc(-c3cc(-c4cnn(C)c4)cn4ncc(C#N)c34)cc2)CC1 [Example 295, 4-(4-(4-acetylpiperazin-1-yl)phenyl)-6-(1-methyl-1H-pyrazol-4-yl)pyrazolo[1,5-a]pyridine-3-carbonitrile] | 720 nM | 
25 | COCC1(C(=O)N2CCN(c3ccc(-c4cc(-c5cnn(C)c5)cn5ncc(C#N)c45)cn3)CC2)CCC1 [Example 354, 4-(6-(4-(1-(methoxymethyl)cyclobutanecarbonyl)piperazin-1-yl)pyridin-3-yl)-6-(1-methyl-1H-pyrazol-4-yl)pyrazolo[1,5-a]pyridine-3-carbonitrile] | 1290 nM | 
26 | Cn1cc(-c2cc(-c3ccc(N4CCC(NC(=O)[C@H]5CCCO5)CC4)nc3)c3c(C#N)cnn3c2)cn1 [Example 178, (R)—N-(1-(5-(3-cyano-6-(1-methyl-1H-pyrazol-4-yl)pyrazolo[1,5-a]pyridin-4-yl)pyridin-2-yl)piperidin-4-yl)tetrahydrofuran-2-carboxamide] | 426 nM | 
27 | Cn1cc(-c2cc(-c3ccc(N4CCN(C(=O)Cc5ccccn5)CC4)nc3)c3c(C#N)cnn3c2)cn1 [Example 5, 6-(1-methyl-1H-pyrazol-4-yl)-4-(6-(4-(2-(pyridin-2-yl)acetyl)piperazin-1-yl)pyridin-3-yl)pyrazolo[1,5-a]pyridine-3-carbonitrile] | 243 nM | 
28 | CC(C)N1CCN(c2ccc(-c3cc(-c4cnn(C)c4)cn4ncc(C#N)c34)cn2)CC1 [Example 410, 4-(6-(4-isopropylpiperazin-1-yl)pyridin-3-yl)-6-(1-methyl-1H-pyrazol-4-yl)pyrazolo[1,5-a]pyridine-3-carbonitrile] |  | 1630 nM
